# In ChEMBL document CHEMBL2375293, “Identification of benzofurano[3,2-d]pyrimidin-2-ones, a new series of HIV-1 nucleotide-competing reverse transcriptase inhibitors” (Bioorg Med Chem Lett, 2013):
# Legend:
# [1] = Cytotoxicity against human C8166 cells assessed as inhibition of cell viability at CC50 after 3 days by MTT assay; assay type: cell-based; settings: read-out: INH
# [2] = Cytotoxicity against human C8166 cells assessed as inhibition of cell viability after 3 days by MTT assay; assay type: cell-based
# [3] = Antiviral activity against wild type HIV1 BH10 infected in human C8166 cells after 3 days by luciferase reporter gene assay; assay type: functional, cell-based, Human immunodeficiency virus type 1 BH10; settings: Human immunodeficiency virus 1, C8166, 72 h
# [4] = Inhibition of HIV1 BH10 reverse transcriptase using poly(rA)/oligo(dT)15 as substrate after 60 mins by fluorescence assay; set-up: species or system Human immunodeficiency virus type 1 BH10
# [5] = Apparent permeability across human Caco2 cells at 10 uM by LC-MS/MS analysis; assay type: ADME, cell-based; settings: Caco-2
# [6] = Solubility of the compound in phosphate buffer at pH 2 after 24 hrs by LC-MS analysis; assay type: physicochemical
# [7] = Solubility of the compound in phosphate buffer at pH 6.8 after 24 hrs by LC-MS analysis; assay type: physicochemical
# [8] = system: Human immunodeficiency virus type 1 BH10; assay: Selectivity ratio of EC50 for HIV1 BH10 harboring reverse transcriptase K103N/Y181C double mutant to EC50 for wild type HIV1 BH10; assay type: functional
# [9] = system: Human immunodeficiency virus type 1 BH10; assay: Selectivity ratio of EC50 for HIV1 BH10 harboring reverse transcriptase Y115F/M184V double mutant to EC50 for wild type HIV1 BH10; assay type: functional
# [10] = system: Human immunodeficiency virus type 1 BH10; assay: Selectivity ratio of EC50 for HIV1 BH10 harboring reverse transcriptase M184V mutant to EC50 for wild type HIV1 BH10; assay type: functional
# [11] = system: Human immunodeficiency virus type 1 BH10; assay: Selectivity ratio of EC50 for HIV1 BH10 harboring reverse transcriptase K65R mutant to EC50 for wild type HIV1 BH10; assay type: functional
# [12] = Ratio of EC50 for wild type HIV1 BH10 infected in human C8166 cells in presence of serum to EC50 for wild type HIV1 BH10 infected in human C8166 cells in absence of serum; assay type: functional, Human immunodeficiency virus type 1 BH10
# [13] = Ratio of CC50 for human C8166 cells to EC50 for wild type HIV1 BH10 infected in human C8166 cells
# [14] = Half life in human liver microsomes at 1 uM by LC-MS/MS analysis; assay type: ADME, Microsome
# [15] = Half life in Sprague-Dawley rat liver microsomes at 1 uM by LC-MS/MS analysis; assay type: ADME, Microsome
# [16] = n-Octanol-phosphate buffer partition coefficient, log D of the compound at 0.5 mg after 24 hrs by LC-MS analysis; assay type: physicochemical
# [17] = system: Human immunodeficiency virus type 1 BH10; assay: Selectivity ratio of EC50 for HIV1 BH10 harboring reverse transcriptase Y115F mutant to EC50 for wild type HIV1 BH10; assay type: functional
SMILES,CC50 at 72 h [2],EC50 [3],IC50 [4],other results
COCCn1c(=O)nc(-c2ccc(NC(=O)CN(C)C)cc2)c2oc3ccccc3c21,> 11 µM,3.6 µM,1.2 µM,cytotoxicity at 72 h [1]: 15%
O=c1nc(-c2ccccc2)c2oc3ccccc3c2n1CCN1CCOCC1,–,–,> 26 µM,–
COCCn1c(=O)nc(-c2ccc(C(=O)NCCN(C)C)cc2)c2oc3ccccc3c21,–,> 9.3 µM,0.945 µM,–
Cn1c(=O)nc(-c2ccccc2)c2oc3ccccc3c21,–,–,> 83 µM,–
CCNCC(=O)Nc1ccc(-c2nc(=O)n(CCOC)c3c2oc2ccc(-c4cccnc4)cc23)cc1,> 5.1 µM,0.2 µM,0.027 µM,cytotoxicity at 72 h [1]: 33%
CCNCc1nc2cc(-c3nc(=O)n(CCOC)c4c3oc3ccc(Br)cc34)ccc2n1C,> 4.4 µM,0.54 µM,0.042 µM,cytotoxicity at 72 h [1]: 20%
CCNCC(=O)Nc1ccc(-c2nc(=O)n(CCOC)c3c2oc2ccc(-c4ccc(CO)cc4)cc23)cc1,> 1.3 µM,0.3 µM,0.034 µM,–
CN1CCc2cc(-c3ccc4oc5c(-c6ccccc6)nc(=O)n(CCN6CCCC6C(N)=O)c5c4c3)ccc2C1 (centres undefined),–,0.052 µM,0.0059 µM,Papp at 10 µM [5]: 0.17 ×10⁻⁶ cm/s; solubility at 24 h [6]: 781 µg/mL; solubility at 24 h [7]: 725 µg/mL; Ratio EC50 [8]: 1.7; Ratio EC50 [9]: 14.2; Ratio EC50 [10]: 5.8; Ratio EC50 [11]: 0.3; Ratio EC50 [12]: 8.4; Ratio CC50/EC50 [13]: >127; half-life at 1 µM [14]: 1.22 h; half-life at 1 µM [15]: 1 h; logD at 24 h [16]: 3
COCCn1c(=O)nc(-c2ccc(N3CCN(C)CC3)cc2)c2oc3ccc(Cl)cc3c21,> 4.5 µM,0.43 µM,0.024 µM,cytotoxicity at 72 h [1]: 18%
COCCn1c(=O)nc(-c2ccc(NC(=O)CN3CCCC3)cc2)c2oc3ccccc3c21,5.95 µM,1.1 µM,0.39 µM,–
O=c1nc(-c2ccccc2)c2oc3ccc(Cl)cc3c2n1CCN1CCC(F)(F)C1,> 4.5 µM,2.9 µM,0.32 µM,–
CCNCC(=O)Nc1ccc(-c2nc(=O)n(CCOC)c3c2oc2ccc(-c4ccccc4)cc23)cc1,2.3 µM,0.36 µM,0.033 µM,–
O=c1nc(-c2ccccc2)c2oc3ccc(Cl)cc3c2n1CCN1CCCC1,> 7.3 µM,3.7 µM,0.59 µM,cytotoxicity at 72 h [1]: 6%
CCNCC(=O)Nc1ccc(-c2nc(=O)n(CCOC)c3c2oc2ccc(-c4ccc5c(c4)CCN(C)C5)cc23)cc1,4.8 µM,0.03 µM,0.0042 µM,Papp at 10 µM [5]: < 0.1 ×10⁻⁶ cm/s; solubility at 24 h [6]: > 822 µg/mL; solubility at 24 h [7]: 650 µg/mL; Ratio EC50 [8]: 1.1; Ratio EC50 [9]: 3.3; Ratio EC50 [10]: 1.1; Ratio EC50 [11]: 0.1; Ratio EC50 [17]: 2; Ratio EC50 [12]: 1.5; Ratio CC50/EC50 [13]: 137; half-life at 1 µM [14]: 1.55 h; half-life at 1 µM [15]: 2.33 h; logD at 24 h [16]: 2.4
CCNCC(=O)Nc1ccc(-c2nc(=O)n(CCOC)c3c2oc2cc(-c4ccc5c(c4)CCN(C)C5)ccc23)cc1,2.1 µM,0.088 µM,0.0086 µM,–
O=c1nc(-c2ccccc2)c2oc3ccc(Cl)cc3c2n1CCN1CCOCC1,–,–,6.5 µM,–
COCCn1c(=O)nc(-c2ccnc(N3CCN(C)CC3)c2)c2oc3ccc(Br)cc3c21,–,–,> 5 µM,–

SMILES,CC50 at 72 h [2],EC50 [3],IC50 [4],other results
CN(C)CC(=O)Nc1ccc(-c2nc(=O)n(C)c3c2oc2ccccc23)cc1,7.7 µM,1.6 µM,3.1 µM,–
CNCCNc1ccc(-c2nc(=O)n(CCOC)c3c2oc2ccc(Cl)cc23)cc1,0.96 µM,0.087 µM,0.01 µM,–
COCCn1c(=O)nc(-c2ccc(NCCN3CCCC3)cc2)c2oc3ccccc3c21,> 7.4 µM,2.4 µM,0.12 µM,–
CCNCC(=O)Nc1ccc(-c2nc(=O)n(CCOC)c3c2oc2ccccc23)cc1,5.1 µM,0.68 µM,0.073 µM,–
COCCn1c(=O)nc(-c2ccc(N3CCNCC3)cc2)c2oc3ccc(Cl)cc3c21,2.7 µM,0.175 µM,0.01 µM,–
NC(=O)C1CCCN1CCn1c(=O)nc(-c2ccccc2)c2oc3ccc(Cl)cc3c21 (centres undefined),> 6.7 µM,2.6 µM,0.65 µM,–
COCCn1c(=O)nc(-c2ccc(COCCN(C)C)cc2)c2oc3ccccc3c21,–,> 11 µM,0.818 µM,–
CN1CCc2cc(-c3ccc4oc5c(-c6ccccc6)nc(=O)n(CCN6CCC(F)(F)C6)c5c4c3)ccc2C1,–,0.025 µM,0.02 µM,Papp at 10 µM [5]: 0.55 ×10⁻⁶ cm/s; solubility at 24 h [6]: > 1000 µg/mL; solubility at 24 h [7]: < 0.1 µg/mL; Ratio EC50 [8]: 1.7; Ratio EC50 [9]: 14.8; Ratio EC50 [10]: 4.8; Ratio EC50 [11]: 0.3; Ratio EC50 [12]: 7.3; Ratio CC50/EC50 [13]: >46; half-life at 1 µM [14]: 0.317 h; half-life at 1 µM [15]: 0.1 h; logD at 24 h [16]: 3.9
CCNCC(=O)Nc1ccc(-c2nc(=O)n(CCOC)c3c2oc2cc(-c4ccc(CN(C)C)cc4)ccc23)cc1,1 µM,0.053 µM,0.0074 µM,–
COCCn1c(=O)nc(-c2cnc(N3CCN(C)CC3)nc2)c2oc3ccccc3c21,> 9.5 µM,0.69 µM,0.155 µM,cytotoxicity at 72 h [1]: 40%
COCCn1c(=O)nc(-c2ccc(N3CCN(C)CC3)nc2)c2oc3ccc(Cl)cc3c21,> 5.8 µM,0.89 µM,0.075 µM,cytotoxicity at 72 h [1]: 37%
O=c1nc(-c2ccccc2)c2oc3ccccc3c2n1CCN1CCCC1,18 µM,11 µM,4.2 µM,–
CNC1CCN(c2ccc(-c3nc(=O)n(CCOC)c4c3oc3ccc(Cl)cc34)cn2)C1 (centres undefined),4.3 µM,0.21 µM,0.04 µM,–
CCNCC(=O)Nc1ccc(-c2nc(=O)n(CCOC)c3c2oc2ccc(-c4ccc(CN(C)C)cc4)cc23)cc1,3.9 µM,0.094 µM,0.012 µM,–
CCNCC(=O)Nc1ccc(-c2nc(=O)n(CCOC)c3c2oc2ccc(Cl)cc23)cc1,3 µM,0.55 µM,0.046 µM,–
COCCn1c(=O)nc(-c2ccc(NC(=O)C(C)N(C)C)cc2)c2oc3ccccc3c21 (centres undefined),> 11 µM,4.4 µM,1.4 µM,cytotoxicity at 72 h [1]: 14%
COCCn1c(=O)nc(-c2ccc(OCCN(C)C)cc2)c2oc3ccccc3c21,–,14 µM,0.63 µM,–
